Results published in patent US11045482B2, “Use of glucocorticoid receptor modulators in the treatment of catecholamine-secreting tumors” (Corcept Therapeutics, Inc., priority 2017, dated 2021).

How the values were obtained:
[1] = system: PNMT mRNA; conditions: intact rats; cited from earlier work
[2] = system: metastatic pheochromocytoma associated with ectopic ACTH secretion; test: Case of a person with metastatic pheochromocytoma and Cushing syndrome given mifepristone (Example 1); type: in vivo, human; conditions: for catecholamine excess symptoms (palpitations, tremors and panic attacks): despite high dose of atenolol and phenoxybenzamine, before mifepristone
Protocol: A person with metastatic pheochromocytoma associated with ectopic ACTH secretion unresponsive to conventional chemotherapy with CVD (cyclophosphamide, vincristine and dacarbazine) and Sunitinib (tyrosine kinase inhibitors) was enrolled in a phase 2 study with a somatostatin analog. […] At the same time the diagnosis of Cushing syndrome was made and 300 mg of Mifepristone was added to their regimen and the dose was further increased to 600 mg daily two weeks later. […] The plasma epinephrine level after 2 weeks of therapy with mifepristone was decreased by 50%, and the plasma metanephrine level was decreased by 25% after 9 weeks of therapy.

[3] = system: pheochromocytoma crisis (PC); conditions: cited from earlier work
[4] = system: rat phenylethanolamine N-methyltransferase (PNMT) gene promoter; conditions: RU486 10 μM; cited from earlier work
[5] = system: metastatic or unresectable catecholamine-secreting tumor; test: Patient with metastatic or unresectable catecholamine-secreting tumor: blood catecholamine level after five weeks of treatment (Examples 2-77); type: in vivo, human
Protocol: (§1) A patient having a metastatic or unresectable catecholamine-secreting tumor, who is not in need of treatment with a glucocorticoid receptor antagonist, and is not receiving exogenous glucocorticoid receptor agonist treatment, is administered an effective amount of mifepristone at a daily dose of 50 mg/kg/day.
as §1, with “20” for “50”
as §1, with “15” for “50”
as §1, with “10” for “50”
as §1, with “5” for “50”
as §1, with “mg/kg/day, and is also administered chemotherapy.” for “mg/kg/day.”
as §1, with “20 mg/kg/day, and is also administered chemotherapy.” for “50 mg/kg/day.”
as §1, with “15 mg/kg/day, and is also administered chemotherapy.” for “50 mg/kg/day.”
as §1, with “10 mg/kg/day, and is also administered chemotherapy.” for “50 mg/kg/day.”
as §1, with “5 mg/kg/day, and is also administered chemotherapy.” for “50 mg/kg/day.”
as §1, with “mg/kg/day, and is also administered an adrenergic antagonist. […]” for “mg/kg/day.”

[6] = system: PNMT mRNA and enzyme expression; conditions: rats, depletion of corticosteroids by hypophysectomy; cited from earlier work
[7] = after 3 months of therapy with mifepristone
[8] = one week after the discontinuation of mifepristone

CC#CC1(O)CC[C@H]2[C@@H]3C=C(C)C4=CC(=O)C=C[C@]4(C)[C@H]3C(O)C[C@@]21C (some centres unmarked) [RU28362, 11,17-dihydroxy-6-methyl-17-(1-propynyl)androsta-1,4,6-triene-3-one]
PNMT mRNA levels [1]: rise markedly

CC(C)NCC(O)COc1ccc(CC(N)=O)cc1 (centres unmarked) [atenolol]
catecholamine excess symptoms (palpitations, tremors and panic attacks) [2]: continued to experience significant catecholamine excess symptoms

C[C@@H]1C[C@H]2[C@@H]3CCC4=CC(=O)C=C[C@]4(C)[C@@]3(F)[C@@H](O)C[C@]2(C)[C@@]1(O)C(=O)CO [dexamethasone]
pheochromocytoma crisis cases ([3]; 1 mg given as a DST in patients with pheochromocytoma): no cases have been reported
pheochromocytoma crisis ([3]; larger doses, as low as 2 mg): may trigger a PC

CC#C[C@]1(O)CC[C@H]2[C@@H]3CCC4=CC(=O)CCC4=C3[C@@H](c3ccc(N(C)C)cc3)C[C@@]21C [mifepristone, 11β-(4-dimethylaminophenyl)-17β-hydroxy-17α-(1-propynyl)-estra-4,9-dien-3-one]
inhibition of dexamethasone (1 μM) activation of the PNMT promoter [4]: fully inhibited
blood level of a catecholamine after five weeks of treatment as compared to the initial level ([5]; daily dose of 1 mg/kg/day, also administered somatostatin): lower
blood level of a catecholamine after five weeks of treatment as compared to the initial level ([5]; daily dose of 5 mg/kg/day): lower
blood level of a catecholamine after five weeks of treatment as compared to the initial level ([5]; daily dose of 5 mg/kg/day, also administered a somatostatin analog): lower
blood level of a catecholamine after five weeks of treatment as compared to the initial level ([5]; daily dose of 5 mg/kg/day, also administered an adrenergic antagonist): lower
blood level of a catecholamine after five weeks of treatment as compared to the initial level ([5]; daily dose of 5 mg/kg/day, also administered chemotherapy): lower
blood level of a catecholamine after five weeks of treatment as compared to the initial level ([5]; daily dose of 5 mg/kg/day, also administered somatostatin): lower
blood level of a catecholamine after five weeks of treatment as compared to the initial level ([5]; daily dose of 5 mg/kg/day, also receives Peptide Receptor Radionuclide Therapy): lower
blood level of a catecholamine after five weeks of treatment as compared to the initial level ([5]; daily dose of 10 mg/kg/day): lower
blood level of a catecholamine after five weeks of treatment as compared to the initial level ([5]; daily dose of 10 mg/kg/day, also administered a somatostatin analog): lower
blood level of a catecholamine after five weeks of treatment as compared to the initial level ([5]; daily dose of 10 mg/kg/day, also administered an adrenergic antagonist): lower
blood level of a catecholamine after five weeks of treatment as compared to the initial level ([5]; daily dose of 10 mg/kg/day, also administered chemotherapy): lower
blood level of a catecholamine after five weeks of treatment as compared to the initial level ([5]; daily dose of 10 mg/kg/day, also administered somatostatin): lower
blood level of a catecholamine after five weeks of treatment as compared to the initial level ([5]; daily dose of 10 mg/kg/day, also receives Peptide Receptor Radionuclide Therapy): lower
blood level of a catecholamine after five weeks of treatment as compared to the initial level ([5]; daily dose of 15 mg/kg/day): lower
blood level of a catecholamine after five weeks of treatment as compared to the initial level ([5]; daily dose of 15 mg/kg/day, also administered a somatostatin analog): lower
blood level of a catecholamine after five weeks of treatment as compared to the initial level ([5]; daily dose of 15 mg/kg/day, also administered chemotherapy): lower
blood level of a catecholamine after five weeks of treatment as compared to the initial level ([5]; daily dose of 15 mg/kg/day, also receives Peptide Receptor Radionuclide Therapy): lower
blood level of a catecholamine after five weeks of treatment as compared to the initial level ([5]; daily dose of 20 mg/kg/day): lower
blood level of a catecholamine after five weeks of treatment as compared to the initial level ([5]; daily dose of 20 mg/kg/day, also administered a somatostatin analog): lower
blood level of a catecholamine after five weeks of treatment as compared to the initial level ([5]; daily dose of 20 mg/kg/day, also administered an adrenergic antagonist): lower
blood level of a catecholamine after five weeks of treatment as compared to the initial level ([5]; daily dose of 20 mg/kg/day, also administered an adrenergic antagonist and Peptide Receptor Radionuclide Therapy): lower
blood level of a catecholamine after five weeks of treatment as compared to the initial level ([5]; daily dose of 20 mg/kg/day, also administered chemotherapy): lower
blood level of a catecholamine after five weeks of treatment as compared to the initial level ([5]; daily dose of 20 mg/kg/day, also administered chemotherapy and a somatostatin analog): lower
blood level of a catecholamine after five weeks of treatment as compared to the initial level ([5]; daily dose of 20 mg/kg/day, also administered chemotherapy and an adrenergic antagonist): lower
blood level of a catecholamine after five weeks of treatment as compared to the initial level ([5]; daily dose of 20 mg/kg/day, also administered chemotherapy and somatostatin): lower
blood level of a catecholamine after five weeks of treatment as compared to the initial level ([5]; daily dose of 20 mg/kg/day, also administered somatostatin): lower
blood level of a catecholamine after five weeks of treatment as compared to the initial level ([5]; daily dose of 20 mg/kg/day, also receives Peptide Receptor Radionuclide Therapy): lower
blood level of a catecholamine after five weeks of treatment as compared to the initial level ([5]; daily dose of 50 mg/kg/day): lower
blood level of a catecholamine after five weeks of treatment as compared to the initial level ([5]; daily dose of 50 mg/kg/day, also administered an adrenergic antagonist): lower
blood level of a catecholamine after five weeks of treatment as compared to the initial level ([5]; daily dose of 50 mg/kg/day, also administered chemotherapy): lower
blood level of a catecholamine after five weeks of treatment as compared to the initial level ([5]; single pharmaceutical composition comprising 50 mg mifepristone and a somatostatin analog, daily for five weeks): lower
blood level of a catecholamine after five weeks of treatment as compared to the initial level ([5]; single pharmaceutical composition comprising 50 mg mifepristone and an adrenergic antagonist, daily for five weeks, also chemotherapy): lower
blood level of a catecholamine after five weeks of treatment as compared to the initial level ([5]; single pharmaceutical composition comprising 50 mg mifepristone and somatostatin, daily for five weeks): lower
blood level of a catecholamine after five weeks of treatment as compared to the initial level ([5]; single pharmaceutical composition comprising 100 mg mifepristone and a somatostatin analog, daily for five weeks): lower
blood level of a catecholamine after five weeks of treatment as compared to the initial level ([5]; single pharmaceutical composition comprising 100 mg mifepristone and an adrenergic antagonist, daily for five weeks): lower
blood level of a catecholamine after five weeks of treatment as compared to the initial level ([5]; single pharmaceutical composition comprising 100 mg mifepristone and an adrenergic antagonist, daily for five weeks, also chemotherapy): lower
blood level of a catecholamine after five weeks of treatment as compared to the initial level ([5]; single pharmaceutical composition comprising 100 mg mifepristone and somatostatin, daily for five weeks): lower
blood level of a catecholamine after five weeks of treatment as compared to the initial level ([5]; single pharmaceutical composition comprising 300 mg mifepristone and a somatostatin analog, daily for five weeks): lower
blood level of a catecholamine after five weeks of treatment as compared to the initial level ([5]; single pharmaceutical composition comprising 300 mg mifepristone and an adrenergic antagonist, daily for five weeks): lower
blood level of a catecholamine after five weeks of treatment as compared to the initial level ([5]; single pharmaceutical composition comprising 300 mg mifepristone and an adrenergic antagonist, daily for five weeks, also chemotherapy): lower
blood level of a catecholamine after five weeks of treatment as compared to the initial level ([5]; single pharmaceutical composition comprising 300 mg mifepristone and somatostatin, daily for five weeks): lower
plasma epinephrine level decreased by ([2]; after 2 weeks of therapy with mifepristone (300 mg)): 50%
metanephrine level [2, 7]: slightly elevated
symptoms of catecholamine excess [2, 7]: controlled
adverse event ([2]; after 3 months of therapy, mifepristone temporarily withheld): vaginal bleeding
plasma metanephrine level decreased by ([2]; after 9 weeks of therapy (300 mg, increased to 600 mg daily two weeks later)): 25%
metanephrine measurement after discontinuation compared to the level during mifepristone dosing [2, 8]: fourfold increase
symptoms of catecholamine excess after discontinuation [2, 8]: worse symptoms of catecholamine excess
symptoms related to cortisol excess as well as to catecholamine excess ([2]; one week after the institution of mifepristone (300 mg), added to somatostatin analog, atenolol, phenoxybenzamine): dramatic improvement

CC(COc1ccccc1)N(CCCl)Cc1ccccc1 (centres unmarked) [phenoxybenzamine]
catecholamine excess symptoms (palpitations, tremors and panic attacks) [2]: continued to experience significant catecholamine excess symptoms

adrenocorticotropin: stimulates endogenous glucocorticoid production (SYSMEHFRWGKPVGKKRRPVKVYPNGAEDESAEAFPLEF; Corticotropin; UniProt P01189 138-176, looked up)
decrease of PNMT mRNA and enzyme expression after hypophysectomy [6]: reversed
